Reference: ChEMBL document CHEMBL1135160, “Development of a genetic selection for catalytic antibodies” (Bioorg Med Chem Lett, 2002)

Tests used:
[1] = system: Escherichia coli; experiment: Concentration required to sustain growth of Escherichia coli HDU-78; 1-10 nM; assay type: functional, organism-based
[2] = Kinetic parameter for rate of conversion to PABA was determined; assay type: ADME

Structure (SMILES) | Concentration [1] [nM] | Km [2] [µM] | k cat [2] [s⁻¹]
Nc1ccc(C(=O)O)cc1 | 10 | – | –
CC(=O)CC(C)(O)CCOC(=O)Nc1ccc(C(=O)O)cc1 (stereo not drawn) | – | 150 | 0.000115
